Reference: publication PMC5059489, “Mechanistic evaluation and transcriptional signature of a glutathione S-transferase omega 1 inhibitor” (Nature Communications, 2016)

Legend:
NCIADR Res = assay: MTT cytotoxicity GI50, NCI-ADR/Res; assay type: cell-based; conditions: Homo sapiens, NCI/ADR-RES
Excerpt: Colon cancer cell line HCT116 was generously provided by Dr Bert Vogelstein, Johns Hopkins Medical Institutions, Baltimore, MD. Pancreatic cancer cell line Panc-1 was obtained from Dr Alan Epstein, University of Southern California. All other cell lines were purchased from the American Type Culture Collection (Manassas, VA). MDA-MB-435 cell line was used in the GSTO1 knockdown experiment as it had high GSTO1 expression (Supplementary Fig. 17). We also tested active compounds in NCI-ADR/Res cell line since GSTO1 is implicated in drug resistance. Cell lines were cultured in RPMI 1640 or […] supplemented with 10% fetal bovine serum at 37 °C in a humidified atmosphere of 5% CO2. All cell lines were maintained in culture under 30 passages and tested regularly for Mycoplasma contamination using PlasmoTest (InvivoGen, San Diego, CA, USA).
Cell proliferation was assessed by a MTT assay. Cancer cells were seeded in 96-well microtitre plates and, after overnight attachment, treated with GSTO1 inhibitors. After 72 h, MTT solution (3 mg ml^−1; 20 μl) was added to each well and cells were incubated for 3 h at 37 °C. After incubation, media from each well was removed and the dark blue formazan crystals formed by live cells were dissolved in DMSO (150 μl per well). The absorbance intensity was measured at 570 nm on a microplate reader (Molecular Devices, Sunnyvale, CA, USA). Cell viability after 24 h treatment was assessed using ApoTox-Glo triplex assay (Promega) according to the manufacturer's protocol. At least three independent dose–response experiments with each concentration tested in triplicate were performed for each cell line.

HCT116 cells [1] = assay: Clonogenic survival assay; assay type: cell-based, human
Method: HCT116 cells were seeded at a density of 200 cells per well in a 6-well microtitre plate. After overnight attachment, cells were treated with different concentrations of GSTO1 inhibitors for 24 h. Colonies were allowed to grow in drug-free medium for 7 days and stained with 0.5% crystal violet. For drug combination studies, HCT116 cells (200 per well) were plated in a 12-well plate. C1-27, cisplatin (1 μM, dissolved in 0.9% NaCl), PD98059 (10 μM), LY294002 (10 μM), SP600125 (1 μM) or desferoxamine mesylate (10 μM) were added alone or in combination and colonies were allowed to grow for 7–10 days.

HCT116 cells [2] = assay: Cell cycle analysis by flow cytometry; assay type: cell-based, human; conditions: 5 μM, 24 h
Method: Cells were seeded at a density of 0.5 × 10^6 per well in a six-well plate. After overnight attachment, cells were treated with C1-27 (5 μM) for 24 h and collected using trypsin. Cells were then washed twice with PBS containing 10% serum and fixed with 70% ethanol overnight at −20 °C. Fixed cells were washed twice in PBS containing 10% serum and stained with 50 μg ml^−1 propidium iodide solution containing 100 μg ml^−1 RNase A for 1 h at 37 °C. Cell cycle was analysed on a BD LSR II flow cytometer (BD Biosciences) and data were analysed using ModFit software.

THP-1 cells = assay: IL-1β secretion from LPS-primed THP-1 cells; assay type: cell-based; conditions: LPS-primed THP-1, 1.5 h, then ATP 5 mM 30 min, western blot
Method: HCT116 cells were seeded in a six-well plate and treated with GSTO1 inhibitors for 24 h. Cells were washed with ice-cold PBS and lysed with a triple detergent lysis buffer supplemented with protease and phosphatase inhibitor cocktail. Lysate was sonicated and centrifuged at 12,000 r.p.m. for 10 min at 4 °C to remove cell debris. Total protein concentration in the supernatant was measured using BCA protein assay kit (Pierce Biotechnology). For IL-1β experiments, THP-1 cells (1 × 10^6 per well) were seeded in a 12-well plate and differentiated overnight with 10 nM phorbol myristate acetate. […] Band intensities were quantified using Image J software. […]
Supplementary Fig. 23. […] (a) ATP-induced IL-1β secretion from LPS-stimulated THP-1 cells was analyzed by ELISA. […] Cytokine secretion level is expressed as a percentage of that released from control cells treated with DMSO. Data are mean readings of duplicate wells. […]
treated with indicated concentrations of C1-27 or GLY (50 µM) for 1.5 h, followed by stimulation with ATP (5 mM) for 30 min. Concentrated supernatant was analyzed by western blotting using anti IL-1β antibody. […] Expression of pro- IL-1β in response to LPS was analyzed by western blotting. […] Representative plots of several gene expression datasets analyzed in Oncomine are shown. […]

CN(C)S(=O)(=O)c1cc(NC(=O)CCl)ccc1Cl [C1-27]
GI50 (NCIADR Res): 3.7 µM | effect on cisplatin-induced cytotoxicity (HCT116 cells [1]; combination with cisplatin, non-cytotoxic concentrations): significantly enhance | clonogenic survival of HCT116 cells (HCT116 cells [1]; sub-micromolar concentrations): inhibited | S-phase population (HCT116 cells [2]): increase | IL-1β release (THP-1 cells): Dose-dependent inhibition
